Test results published in patent US20080170998A1 (priority 2005, published 2008).

Key:
[1] = tested on: Treponema denticola ATCC 33520 strain; test: Growth of periodontopathic bacteria in pRH-containing medium (turbidity O.D.660 nm); format: cell-based; conditions: 500 μg/mL, FIG. 9
Method: (§1) Each of the above cryopreserved strains was anaerobically cultivated at 35° C. for 48 hours by using TSB medium to which yeast extract (1 g/L), hemin ([…]), and menadione (1 mg/L) were added to provide a precultured bacterial culture.

[2] = tested on: Fusobacterium nucleatum ATCC 23726 strain, ATCC 25586 strain; test: as above; format: cell-based; conditions: 500 μg/mL; ATCC 23726 and ATCC 25586 strains; FIGS. 7, 8
Method: as §1

[3] = tested on: Porphyromonas gingivalis ATCC 33277 strain, W50 strain; test: as above; format: cell-based; conditions: 500 μg/mL; ATCC 33277 and W50 strains; FIGS. 1, 2
Method: as §1

[4] = tested on: Prevotella intermedia ATCC 49046 strain; test: as above; format: cell-based; conditions: 500 μg/mL, FIG. 3
Method: as §1

[5] = tested on: Actinobacillus actinomycetemcomitans ATCC 29523 stain, Y4 strain; test: as above; format: cell-based; conditions: 500 μg/mL; ATCC 29523 and Y4 strains; FIGS. 5, 6
Method: as §1

[6] = tested on: Porphyromonas gingivalis ATCC 33277 strain; format: cell-based; conditions: 0.1 mg/mL, 1 mg/mL, 10 mg/mL
[7] = tested on: arginine-specific protease (Arg-gingipain; RGP); test: Protease inhibition, fluorogenic substrate Bz-Arg-methylcoumarinamide, culture supernatant; format: biochemical, Porphyromonas gingivalis; conditions: substrate 100 μM, 15 minutes room temperature
Method: Enzyme activity inhibitions of an arginine-specific protease (Arg-gingipain; hereinafter, referred to as “RGP”) and lysin-specific protease (Lys-gingipain; hereinafter, referred to as “KGP”) as dominant virulence factor for Porphyromonas gingivalis were examined.
The reaction was stopped by adding 2 mM TLCK, and released methyl-coumarin-amide was measured by means of spectrophotofluorometer (excitation wavelength: 380 nm, fluorescence wavelength: 460 nm).
Furthermore, an inhibition rate was defined according to the Equation (1):
Inhibition rate(%)=(Blank fluorescence intensity−Sample fluorescence intensity)÷Blank fluorescence intensity×100 (1)
Blank fluorescence intensity indicates fluorescence intensity upon reaction without adding pRH. Sample fluorescence intensity indicates fluorescence intensity upon reaction with adding pRH.

[8] = tested on: Porphyromonas gingivalis ATCC 33277 strain and Streptococcus oralis ATCC 9811 strain; conditions: pRH solution 2.5 mg/mL; PBS pH 6.0, 37° C.; FIG. 13
[9] = tested on: Prevotella nigrescens ATCC 25261 strain; conditions: O.D.660 nm after 24 hours and 48 hours, FIG. 4

Substance | growth inhibitory effect [1] | growth inhibitory effect [2] | growth inhibitory effect [3] | growth inhibitory effect [4] | growth inhibitory effect [5] | inhibition of the absorption (adhesion) of Porphyromonas gingivalis for sHA [6] | inhibition rate for RGP ([7]; pRH at 100 μg/mL) | inhibition rate for RGP ([7]; pRH at 1000 μg/mL) | aggregation inhibitory activity (inhibition rate of coaggregation) [8] | concentration at which a growth inhibitory effect was observed [9]
polyarginyl histidine [pRH] | not observed | not observed | not observed | not observed | not observed | obviously inhibited | 0.2% | 7.7% | 33% | ≥ 100 µg/mL
polylysine [reference compound] |  |  |  |  |  | did not inhibit |  |  |  | 
